Experimental data as given in patent US20190269666A1, “COMBINATION THERAPY WITH MERESTINIB AND ANTI-PD-L1 OR ANTI-PD-1 INHIBITORS FOR USE IN THE TREATMENT OF CANCER” (Eli Lilly and Company, priority 2016, published 2019).

What was measured:
[1] = target: T1, phospho-AXL (p-AXL) (Mus musculus, UniProt Q00993); assay: Mouse phospho-RTK array in CT26 cells; format: cell-based; settings: 500 nM, CT26 cells in vitro
T1 construct: CT26 cells also express high level of phospho-AXL (p-AXL) by western blot analysis; endogenous in cells; host or cells: CT26 (mouse colorectal cancer line)
T1 sequence (Q00993 19-888): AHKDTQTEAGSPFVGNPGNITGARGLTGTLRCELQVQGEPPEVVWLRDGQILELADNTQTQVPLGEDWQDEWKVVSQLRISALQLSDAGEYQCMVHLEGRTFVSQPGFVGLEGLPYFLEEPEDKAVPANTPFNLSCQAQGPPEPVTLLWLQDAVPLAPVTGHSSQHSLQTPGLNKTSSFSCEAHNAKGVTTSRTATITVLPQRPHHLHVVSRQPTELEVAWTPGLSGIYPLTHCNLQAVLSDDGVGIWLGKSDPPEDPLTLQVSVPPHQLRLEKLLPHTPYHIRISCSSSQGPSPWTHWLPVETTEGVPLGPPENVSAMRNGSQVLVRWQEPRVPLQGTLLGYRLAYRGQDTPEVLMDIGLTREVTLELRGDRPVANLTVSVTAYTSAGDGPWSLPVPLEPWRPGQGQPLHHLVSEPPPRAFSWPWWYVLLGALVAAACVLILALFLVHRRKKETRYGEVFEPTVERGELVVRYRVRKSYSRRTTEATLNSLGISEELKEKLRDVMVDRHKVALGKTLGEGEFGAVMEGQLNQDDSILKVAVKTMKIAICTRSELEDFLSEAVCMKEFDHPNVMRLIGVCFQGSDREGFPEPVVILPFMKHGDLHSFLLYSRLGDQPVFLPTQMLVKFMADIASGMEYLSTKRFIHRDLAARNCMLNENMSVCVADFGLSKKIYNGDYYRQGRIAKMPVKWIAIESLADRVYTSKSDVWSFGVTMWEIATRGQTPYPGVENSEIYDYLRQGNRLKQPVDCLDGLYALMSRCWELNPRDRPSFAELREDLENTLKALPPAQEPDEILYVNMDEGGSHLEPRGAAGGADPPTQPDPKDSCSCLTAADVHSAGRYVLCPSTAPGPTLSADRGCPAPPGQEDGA
Experimental: CT26 CRC tumor cells harbor KRAS activating mutation G12D. […] CT26 cells also express high level of phospho-AXL (p-AXL) by western blot analysis and merestinib is shown to decrease p-AXL in vitro by more than 60% at a concentration of 500 nM in the mouse phospho-RTK array, but show very little effect on CT26 cell proliferation (IC50>20 μM).

[2] = tested on: EMT6 syngeneic mouse mammary carcinoma tumor model; assay: EMT6 syngeneic mouse mammary carcinoma tumor model; format: in vivo
Excerpt: A syngeneic mouse tumor model is used to evaluate potential combination effect of merestinib and anti-PD-L1 antibody in the EMT6 model (Rockwell, S C, Kallman, R F, Fajardo, L F. Characteristics of a serially transplanted mouse mammary tumor and its tissue-culture-adpated derivative. J Nat Cancer Institute. 1972, 49:735-749). Anti-PD-L1 antibody surrogate (178G7, LSN3370181) (Eppihimer et al. Microcirculation 2002:9(2):133) is used in the mouse study.
Female BALB/c mice (18-20 gm) from Envigo (Harlan Laboratories) are used for this study. Food and water are available ad libitum. Animals are acclimated for at least one week prior to any experimental manipulation. The study is performed in accordance with AALAC accredited institutional guidelines.
Merestinib is formulated as a solution in 10% PEG 400 in 90% (20% Captisol in H2O) once weekly. Anti-PD-L1 antibody (LSN3370181) is formulated in PBS (phosphate buffered saline).
EMT6 cells (from internal in vivo pharmacology cell culture group lot EMT6-3184882) are used for implantation. Approximately 5×10^5 cells in HBSS are implanted subcutaneously into the right hind flank of the animal under anesthesia. Prior to commencing drug administration, animals are randomized to treatment groups based on body weight.
There are 4 arms in this study with 15 animals per group: 1) vehicle control; 2) merestinib 12 mg/kg QD×21, PO; 3) LSN3370181 (anti-PD-L1) 0.5 mg/mouse once weekly for 3 weeks via IP; 4) combination merestinib+anti-PD-L1 antibody; combination therapies follow the same dosing schedule as the monotherapies. Treatment is initiated on Day 6 post tumor cell implantation and continued for 21 days (final dose administered on Day 26). Tumor volumes and body weight are measured bi-weekly. Tumor volume is estimated by using the formula: v=l×w^2×0.536 where l=larger of measured diameter and w=smaller of perpendicular diameter. Animals are sacrificed using CO2 and cervical dislocation.
On Day 20 post tumor cell implant, 5 animals from each group are taken down for harvesting of spleens and tumors for mechanism of action (MOA) studies (FACs analysis, gene expression). The remaining animals continue with treatment as described above. At the end of the dosing period (Day 27 post tumor cell implant), animals are observed for tumor growth for 43 days. Animals are removed from study when tumor burden reached or exceeded 2500 mm^3. To assess immune memory, on Day 70 post tumor cell implant, animals that remained on study (complete responders and partial responders) are rechallenged with new implant of EMT6 cells on the contralateral side and observed for tumor growth for 15 days.
Tumor volume is transformed to the log scale to equalize variance across time and treatment groups. The log volume data are analyzed with a two-way repeated measures analysis of variance by time and treatment using the MIXED procedures in SAS software (Version 9.3). The correlation model for the repeated measures is spatial power. Treated groups are compared to the control group at each time point. The MIXED procedure is also used separately for each treatment group to calculate least squares means and standard errors at each time point. Both analyses account for the autocorrelation within each animal and the loss of data that occurs when animals are removed or lost before end of study.
Bayesian ordinal logistic regression analysis is used to obtain the posterior probability of the combination treatment effect for synergy, additivity or antagonism was conducted on Day 69 for this study. Each animal was classified into one of 3 response categories, based on its Day 69 tumor volume and by comparison to the vehicle data: I) Non-responder (NR), II) Partial Responder (PR), III) Complete Responder (CR). CR is defined by tumor volume […] at Day 69. NR is defined as unperturbed exponential growth, similar to vehicle animals. […]

Structure (SMILES): Cc1ccc(C(=O)Nc2ccc(Oc3cc4cnn(C)c4cc3-c3cn[nH]c3)c(F)c2)c(=O)n1-c1ccc(F)cc1 [merestinib, N-(3-fluoro-4-(1-methyl-6-(1H-pyrazol-4-yl)-1H-indazol-5-yloxy)phenyl)-1-(4-fluorophenyl)-6-methyl-2-oxo-1,2-dihydropyridine-3-carboxamide]
- decrease of p-AXL [1]: more than 60%
- Regression (%) ([2]; Day 31): No tumor regression
- T/C % ([2]; Day 31): 35.2%
- Day 69 Treatment Responders NR (Non-responder) ([2]; animals of 10/group): 10
- Day 69 Treatment Responders PR (Partial Responder) ([2]; animals of 10/group): 0
- Day 69 Treatment Responders CR (Complete Responder) ([2]; animals of 10/group, tumor volume ≤25 mm^3): 0
- single agent anti-tumor activity ([2]; mouse, in vivo): weak single agent anti-tumor activity
